Experimental data: patent US20250000952A1, “POLYPEPTIDE BASED ON RECEPTOR-INTERACTING PROTEIN KINASE-3 METHYLATION MODIFICATION AND APPLICATION THEREOF IN CELL NECROPTOSIS-RELATED DISEASES” (Air Force Medical University of the People's Liberation Army, priority 2023, published 2025)
Entries after “also recorded” stand apart in the source; their conditions may differ.

How the values were obtained:
[1] = tested on: mouse L929 cells; test: Membrane penetrating experiment (fluorescence microscopy of FITC-labeled polypeptide); type: cell-based; conditions: 20 μM polypeptide, 24 hours
Experimental: Under the condition of necroptosis activation, it is observed whether the symmetrical dimethyl modified polypeptide fragment is capable of reducing the necroptosis and protecting cells from death. 20 μM polypeptide is added to mouse L929 cells for 24 hours, and the efficiency of polypeptide entering the target cells is analyzed by fluorescence microscope, with the scale of 275 μm, and the results are shown in FIG. 1A-FIG. 1B.

[2] = tested on: pRIP1, pRIP3 and pMLKL; test: Protein detection of necroptosis marker molecules after TNF-α + Z-VAD; type: cell-based, mouse; conditions: L929, TNF-α (20 ng/ml)+Z-VAD (20 μM), peptide 10 μM, 20 μM and 50 μM, 12 hours
Experimental: Furthermore, the necroptosis reaction in cells is detected. Mouse fibroblast L929 is treated with the classic cell necroptosis inducer TNF-α (20 ng/ml)+Z-VAD (20 μM), and at the same time, the peptides TAT (20 μM), TAT-mRIP3-WT and TAT-mRIP3-SDMA (10, 20 and 50 μM) are added. Cell samples are collected for protein detection after 12 hours.

[3] = tested on: Prmt5^iIEC-KO mice; test: Survival (lifetime) analysis of tamoxifen-induced Prmt5 knockout mice; type: in vivo, mouse; conditions: tamoxifen 75 mg/kg, polypeptide 10 mg/kg intraperitoneally once a day until death, ** p<0.01
Experimental: Tamoxifen-induced mouse intestinal epithelial cell-specific gene knockout mice (Prmt5^iIEC-KO) are used. Tamoxifen is given (75 mg/kg) to mice at age of 8 weeks to induce Prmt5 gene knockout and cell necroptosis (intraperitoneal injection, once a day, for 5 days). Using Prmt5^iIEC-KO, while tamoxifen is injected to induce Prmt5 gene knockout, mice are injected with different types and concentrations of peptides intraperitoneally, and the survival cycle of mice is analyzed, ** p<0.01. Mice are injected intraperitoneally with 10 mg/kg polypeptide once a day until the mice die.

[4] = tested on: mouse fibroblast L929; test: Necroptosis stimulation experiment, cell morphology after TNF-α + Z-VAD; type: cell-based; conditions: L929, TNF-α (20 ng/mL)+Z-VAD (20 μM), polypeptide 20 μM, compared with TAT-mRIP3
Experimental: The necroptosis induced by TNF-α (20 ng/mL)+Z-VAD (20 μM) is in mouse fibroblast L929, and polypeptide (20 μM) is added to intervene. After 12 hours treatment, the morphological changes of the cell are analyzed: Dimethyl sulfoxide (DMSO) is used as control group); the scale is 20 μm.
After 12 hours, the necroptosis of the cells is stimulated.

[5] = tested on: intestinal tissues of Prmt5^iIEC-KO mice; test: HE histological analysis of mouse intestine; type: in vivo; conditions: compared with TAT and unmodified (TAT-mRIP3) polypeptide group

TAT-mRIP3-SDMA: GRKKRRQRRRPQQAQFGRG (SDMA) GWQPFHK; cell-penetrating peptide TAT connected to mouse RIP3 peptide with symmetric di-methylated arginine 479
efficiency of polypeptide entering the target cells (fluorescence intensity) [1]: capable of entering mouse lung fibroblast L929
expression levels of pRIP1, pRIP3 and pMLKL [2]: decreasing the expression levels; also recorded: lower than control group
lifetime of mice [3]: significantly prolonged
protection against necroptosis / cell death (cell morphology) [4]: reducing cell death; also recorded: obvious protective effect
intestinal tissue necrosis and intestinal cavity structure (HE staining) [5]: significant protective effect
